{
  "source": "paper PMC12656849",
  "about": "(Viruses, 2025)",
  "key": {"[1]": {"molecular_target": "T1, MPXV H1 (Monkeypox virus, UniProt A0A7H0DN78)", "T1 sequence (A0A7H0DN78 whole entry, looked up)": "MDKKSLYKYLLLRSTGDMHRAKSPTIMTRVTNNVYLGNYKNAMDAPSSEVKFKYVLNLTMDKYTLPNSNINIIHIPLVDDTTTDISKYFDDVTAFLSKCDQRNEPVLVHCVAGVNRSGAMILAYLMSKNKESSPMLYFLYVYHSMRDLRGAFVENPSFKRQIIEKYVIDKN", "experiment": "biochemical"}, "[2]": {"test_system": "HeLa cells"}, "[3]": {"test_system": "VARV H1", "details": "cited from earlier work"}, "[4]": {"test_system": "MPXV", "details": "cited from earlier work"}, "[5]": {"molecular_target": "T1, MPXV H1", "format": "biochemical", "details": "read-out: Michaelis constant (Km); pH 6.5"}, "[6]": {"test_system": "mpox", "details": "in vivo; cited from earlier work"}},
  "note": "Structures can show the parent of a compound that is named as a salt.",
  "data": [
    {"molecule": "CC(C)(C)C(=O)Nc1ccc2c(c1)C(=O)C(=O)c1ccccc1-2", "note": "[Compound 35, SF1670]", "values": [
      {"measurement": "IC50", "setting": "[1]", "value": "154 ± 12", "unit": "nM"}
    ]},
    {"molecule": "N#CSc1cc(SC#N)c(N)nc1N", "note": "[Compound 41, PR619]", "values": [
      {"measurement": "IC50", "setting": "[1]", "value": "176 ± 7", "unit": "nM"},
      {"measurement": "cytotoxicity (in words)", "setting": "[2]", "value": "particularly low cytotoxicity"}
    ]},
    {"molecule": "CC1(C)CCC2=C(O1)c1ccccc1C(=O)C2=O", "note": "[Compound 45, Beta-lapachone]", "values": [
      {"measurement": "IC50", "setting": "[1]", "value": "348 ± 17", "unit": "nM"},
      {"measurement": "cytotoxicity (in words)", "setting": "[2]", "value": "particularly low cytotoxicity"}
    ]},
    {"molecule": "O=C1C=C(Cl)C(=O)c2ccccc21", "note": "[Compound 47, 2-Chloro-1,4-naphthoquinone]", "values": [
      {"measurement": "IC50", "setting": "[1]", "value": "837 ± 56", "unit": "nM"},
      {"measurement": "cytotoxicity (in words)", "setting": "[2]", "value": "particularly low cytotoxicity"}
    ]},
    {"molecule": "Cl.Oc1cccc(O)n1", "note": "[Compound 57, 2,6-Dihydroxypyridine hydrochloride]", "values": [
      {"measurement": "IC50", "setting": "[1]", "value": "911 ± 64", "unit": "nM"},
      {"measurement": "cytotoxicity (in words)", "setting": "[2]", "value": "particularly low cytotoxicity"}
    ]},
    {"molecule": "O=C1C(=O)c2ncccc2-c2cccnc21", "note": "[Compound 59, Phanquinone]", "values": [
      {"measurement": "IC50", "setting": "[1]", "value": "241 ± 7", "unit": "nM"}
    ]},
    {"molecule": "CN(C)CCNc1nc2cc(O)ccc2c2c1C(=O)c1ccccc1-2", "note": "[Compound 68, TAS-103 (dihydrochloride)]", "values": [
      {"measurement": "IC50", "setting": "[1]", "value": "865 ± 16", "unit": "nM"},
      {"measurement": "cytotoxicity (in words)", "setting": "[2]", "value": "substantial cytotoxicity"}
    ]},
    {"molecule": "CC(=O)c1cc2c(o1)C(=O)c1ccccc1C2=O", "note": "[Compound 75, Napabucasin]", "values": [
      {"measurement": "IC50", "setting": "[1]", "value": "957 ± 40", "unit": "nM"},
      {"measurement": "cytotoxicity (in words)", "setting": "[2]", "value": "substantial cytotoxicity"}
    ]},
    {"molecule": "CC(C)NC1=CC=CNC1N1CCN(C(=O)c2cc3cc(NS(C)(=O)=O)ccc3[nH]2)CC1", "note": "(stereo not shown) [Compound 88, Delavirdine (mesylate)]", "values": [
      {"measurement": "IC50", "setting": "[1]", "value": "987 ± 48", "unit": "nM"},
      {"measurement": "cytotoxicity (in words)", "setting": "[2]", "value": "particularly low cytotoxicity"}
    ]},
    {"molecule": "Cn1cccc1/C=C1\\C(=O)NC(=O)c2ccccc21", "note": "[Compound 89, BYK204165]", "values": [
      {"measurement": "IC50", "setting": "[1]", "value": "794 ± 46", "unit": "nM"},
      {"measurement": "cytotoxicity (in words)", "setting": "[2]", "value": "particularly low cytotoxicity"}
    ]},
    {"molecule": "Cc1coc2c1C(=O)C(=O)c1c-2ccc2c1CCCC2(C)C", "note": "[Compound 106, Tanshinone IIA]", "values": [
      {"measurement": "IC50", "setting": "[1]", "value": "531 ± 19", "unit": "nM"}
    ]},
    {"molecule": "COCCn1c2c([n+](Cc3cnccn3)c1C)C(=O)c1ccccc1C2=O", "note": "[Compound 108, YM155]", "values": [
      {"measurement": "IC50", "setting": "[1]", "value": "826 ± 65", "unit": "nM"},
      {"measurement": "cytotoxicity (in words)", "setting": "[2]", "value": "substantial cytotoxicity"}
    ]},
    {"molecule": "CC1=CC(=O)c2c(O)cccc2C1=O", "note": "[Compound 109, Plumbagin]", "values": [
      {"measurement": "IC50", "setting": "[1]", "value": "874 ± 24", "unit": "nM"},
      {"measurement": "cytotoxicity (in words)", "setting": "[2]", "value": "particularly low cytotoxicity"}
    ]},
    {"molecule": "Cc1c(S(=O)(=O)O)oc2c1C(=O)C(=O)c1c-2ccc2c1CCCC2(C)C", "note": "[Compound 111, Tanshinone IIA sulfonate sodium]", "values": [
      {"measurement": "IC50", "setting": "[1]", "value": "287 ± 10", "unit": "nM"}
    ]},
    {"molecule": "COc1cc2c3c(c1OC)-c1ccccc1C[C@H]3N(C)CC2", "note": "[Compound 112, Nuciferine]", "values": [
      {"measurement": "IC50", "setting": "[1]", "value": "752 ± 9", "unit": "nM"}
    ]},
    {"molecule": "Nc1cc(N)c(N)cc1N", "note": "[Compound 118, 1,2,4,5-Benzenetetramine tetrahydrochloride]", "values": [
      {"measurement": "IC50", "setting": "[1]", "value": "333 ± 30", "unit": "nM"}
    ]},
    {"molecule": "COc1ccc2c(c1OC)CC1c3c(cc4c(c3-2)OCO4)CCN1C", "note": "(stereo not shown) [Compound 122, Crebanine]", "values": [
      {"measurement": "IC50", "setting": "[1]", "value": "229 ± 21", "unit": "nM"}
    ]},
    {"molecule": "COc1cc2c3c(cc4ccccc4c3c1OC)N(C)CC2", "note": "[Compound 123, Dehydronuciferine]", "values": [
      {"measurement": "IC50", "setting": "[1]", "value": "356 ± 25", "unit": "nM"},
      {"measurement": "cytotoxicity (in words)", "setting": "[2]", "value": "particularly low cytotoxicity"}
    ]},
    {"molecule": "CC(C)(c1ccc(NS(=O)(=O)C(F)(F)F)cc1)c1ccc(C(C)(C)c2ccc(NS(=O)(=O)C(F)(F)F)cc2)cc1", "note": "[PTP inhibitor IV]", "values": [
      {"measurement": "IC50", "setting": "[1]", "value": 18900, "unit": "nM"},
      {"measurement": "potency of VARV H1 inhibition", "setting": "[3]", "value": "low-micromolar potency"}
    ]},
    {"molecule": "OC(c1cc(C(F)(F)F)nc2c(C(F)(F)F)cccc12)C1CCCCN1", "note": "(stereo not shown) [mefloquine]", "values": [
      {"measurement": "inhibition of MPXV", "setting": "[4]", "value": "inhibit MPXV"}
    ]},
    {"molecule": "O=[N+]([O-])c1ccc(OP(=O)(O)O)cc1", "note": "[pNPP, p-nitrophenyl phosphate]", "values": [
      {"measurement": "Km", "setting": "[5]", "value": 1.5, "unit": "mM"}
    ]},
    {"molecule": "O=C(NN1C(=O)[C@@H]2[C@@H]3C=C[C@@H]([C@H]4C[C@@H]34)[C@@H]2C1=O)c1ccc(C(F)(F)F)cc1", "note": "[tecovirimat]", "values": [
      {"measurement": "mpox symptom duration compared with placebo", "setting": "[6]", "value": "did not shorten"}
    ]}
  ]
}
